In patent US20170165283A1, “USE OF BETA-NICOTINAMIDE MONONUCLEOTIDE IN PREPARATION OF HEALTH-CARE PRODUCTS FOR PREVENTING AND TREATING ARTERIOSCLEROSIS AND CARDIO-CEREBROVASCULAR DISEASES, AND HEALTH-CARE PRODUCT CONTAINING THE SAME” (BONTAC BIO-ENGINEERING (SHENZHEN) CO., LTD, priority 2015, published 2017):

Key:
[1] = test system: guinea pigs fed on high-fat diet (arteriosclerosis, lesion of the aorta); experiment: Aortic lesion area (Sudan IV staining) in guinea pigs fed on high-fat diet; assay type: in vivo; conditions: end of week 7, x±s
Description: 70 SPF healthy guinea pigs (female:male 1:1) having a body weight of 250-300 g, were assigned to 7 groups at random, each group having 10 animals. The groups include (1) a normal control group, fed on basal diet, and allowed to free access to water during experiment;
(2) a high fat control group, fed on high-fat diet, and allowed to free access to water during experiment;
(3) a high fat prevention group, fed on high-fat diet, dosed with 50 mg NMN/kg body weight every day by gavage, and allowed to free access to water during experiment;
(4) a low-dose NMN group, fed on high-fat diet, dosed with 0.5 mg NMN/kg body weight every day by gavage from week 6, and allowed to free access to water during experiment;
(5) a medium-dose NMN group, fed on high-fat diet, dosed with 50 mg NMN/kg body weight every day by gavage from week 6, and allowed to free access to water during experiment;
(6) a high-dose NMN group, fed on high-fat diet, dosed with 100 mg NMN/kg body weight every day by gavage from week 6, and allowed to free access to water during experiment; and (7) a NMN+NR group, fed on high-fat diet, dosed with 50 mg NMN/kg body weight and 5 mg NR/kg body weight every day by gavage from week 6, and allowed to free access to water during experiment.
The formulation of the high-fat diet includes 75% basal diet, 5% cholesterol, and 20% lard oil.
At the end of week 7, all the experimental animals was fasted (allowed to access to water) for 12 hrs and then sacrificed. The aorta was isolated, dissected longitudinally along the midline of the anterior wall, and stained with Sudan IV. […] The lesion area pathologically measured and the total endangium area were quantified, and the degree of arteriosclerosis was expressed by percentages of the lesion area relative to the total endangium area of the aorta.
Statistical analysis: All the experimental data is analyzed by SPSS13.0 Statistics software. The measurement data is expressed as x±s, and t test is applied to check the statistical significance. Where P <0.05, there is statistical significance.

[2] = test system: patients diagnosed as having cardio-cerebrovascular diseases resulting from arteriosclerosis; experiment: Clinical trial in patients with cardio-cerebrovascular diseases resulting from arteriosclerosis; assay type: in vivo, human; conditions: Group A: oral NMN 10 mg/kg body weight every day; for Total effective rate: excluding the withdrawing patients
Description: 200 patients (male:female 1:1, aged 35-76 years and 55 years on average, and having a course of disease of the shortest 2 years, the longest 7 years, and 4.8 years on average) diagnosed as having cardio-cerebrovascular diseases resulting from arteriosclerosis were selected at random as subjects for clinical observation. The patients were assigned to a group A and a group B at random, each group having 100 patients.
Group A: The patients were orally administered with NMN at a dosage of 10 mg/kg body weight before or after meals every day, and the diet was controlled as desired.
Group B: The patients were orally administered with NMN at a dosage of 10 mg/kg body weight and with NR at a dosage of 2 mg/kg body weight before or after meals every day, and the diet was controlled as desired.
(1) Obvious effectiveness: The health is built up, the body is powerful, the blood lipid and blood pressure drop to normal levels, the palpitation, chest pain, chest tightness, headache, dizziness, decreased vision, decreased memory, insomnia and dreamful sleep, and other clinical symptoms are obvious alleviated.
(2) Effectiveness: The health is built up, the blood lipid and blood pressure drop slightly, the palpitation, chest pain, chest tightness, headache, dizziness, decreased vision, decreased memory, insomnia and dreamful sleep, and other clinical symptoms are alleviated to some extent.
(3) Ineffectiveness: There is no obvious improvement in the clinical symptoms.

## NC(=O)c1ccc[n+]([C@@H]2O[C@H](COP(=O)([O-])O)[C@@H](O)[C@H]2O)c1 [NMN, β-nicotinamide mononucleotide]
[1]; high fat prevention group: high-fat diet, 50 mg NMN/kg body weight every day by gavage, n=10
  Rate of lesion area of aorta (%): 4 ± 1%
[1]; high-dose group: high-fat diet, 100 mg NMN/kg body weight every day by gavage from week 6
  Rate of lesion area of aorta (%): 12 ± 3%
[1]; low-dose group: high-fat diet, 0.5 mg NMN/kg body weight every day by gavage from week 6
  Rate of lesion area of aorta (%): 59 ± 4%
[1]; medium-dose group: high-fat diet, 50 mg NMN/kg body weight every day by gavage from week 6
  Rate of lesion area of aorta (%): 23 ± 2%
[2]
  Time after administration at which patients with mild disease are cured: 7 days
[2]; after 1 month
  Patients showing obvious effectiveness: 67 out of 100 patients
  Total effective rate: 96%
[2]; after 1 month, 100 patients
  Patients showing effectiveness: 28 patients
  Patients showing ineffectiveness: 4 patients
[2]; after 1 month, listed as β-nicotinamide mononucleotide
  Total effective rate: up to 96%
